Assay results published in PMC8037182, “Solvothermal Synthesis of Multiple Dihydropyrimidinones at a Time as Inhibitors of Eg5” (Molecules, 2021).
pIC50: −log10 of the molar value.

How the values were obtained:
Caco-2 cell line = experiment: Cytotoxicity MTS assay, Caco-2 cell line; type: cell-based; settings: for OD490 Mean / OD490 Well 1 / OD490 Well 2 / OD490 Well 3: Caco-2 cell line
Protocol: (§1) The positive compounds (IC50 < 100 μM) obtained from the primary Eg5 motor protein ATPase assay were tested for antiproliferative activity in vitro against Caco-2 cell line, Hela cell line, L929 cell line and T24 cell line by performing MTS assay. Cells were introduced into 96-well plates at a density of 1000 cells per well. After 24 h incubation, the cells were exposed with compounds at final concentrations ranging from 0.5 to 100 µM for 24 h. DMSO was used at a final concentration of 0.025% as blank control, monastrol was used as the positive control. Then 20 µL (CellTiter 96® AQueous One Solution Promega, Madison, WI, USA) reagent was added in each well. After 2 h at 37 °C in a 80% humidified, 5% CO2 atmosphere, the absorbance at 490 nm was recorded using a microplate reader (BIO-RAD iMark^TM). The results were obtained in three independent duplicate experiments. The primary data were shown in Supplementary Materials Tables S4–S7. The IC50 values for these compounds were calculated from a non-linear regression graph plotted between the percentage of cell viability and concentration with SPSS17.0 software.

T24 cell line = experiment: Cytotoxicity MTS assay, T24 cell line; type: cell-based; settings: for OD490 Mean / OD490 Well 1 / OD490 Well 2 / OD490 Well 3: T24 cell line
Protocol: as §1

Compound: CCOC(=O)c1c(C2NC(=O)NC(C)=C2C(=O)Nc2ccccc2OC)[nH]c(C(=O)OC)c1C (centres unmarked) [D1]
- OD490 Mean (Caco-2 cell line; 0.5μM, first assay): 0.6107
- OD490 Well 1 (Caco-2 cell line; 0.5μM, first assay): 0.5649
- OD490 Well 2 (Caco-2 cell line; 0.5μM, first assay): 0.5391
- OD490 Well 3 (Caco-2 cell line; 0.5μM, first assay): 0.7282
- OD490 Mean (Caco-2 cell line; 0.5μM, second assay): 0.6066
- OD490 Well 1 (Caco-2 cell line; 0.5μM, second assay): 0.6391
- OD490 Well 2 (Caco-2 cell line; 0.5μM, second assay): 0.6324
- OD490 Well 3 (Caco-2 cell line; 0.5μM, second assay): 0.5484
- OD490 Mean (Caco-2 cell line; 0.5μM, third assay): 0.6142
- OD490 Well 1 (Caco-2 cell line; 0.5μM, third assay): 0.6774
- OD490 Well 2 (Caco-2 cell line; 0.5μM, third assay): 0.5749
- OD490 Well 3 (Caco-2 cell line; 0.5μM, third assay): 0.5903
- OD490 Mean (Caco-2 cell line; 1μM, first assay): 0.6086
- OD490 Well 1 (Caco-2 cell line; 1μM, first assay): 0.6046
- OD490 Well 2 (Caco-2 cell line; 1μM, first assay): 0.6209
- OD490 Well 3 (Caco-2 cell line; 1μM, first assay): 0.6002
- OD490 Mean (Caco-2 cell line; 1μM, second assay): 0.6031
- OD490 Well 1 (Caco-2 cell line; 1μM, second assay): 0.6102
- OD490 Well 2 (Caco-2 cell line; 1μM, second assay): 0.5846
- OD490 Well 3 (Caco-2 cell line; 1μM, second assay): 0.6145
- OD490 Mean (Caco-2 cell line; 1μM, third assay): 0.6182
- OD490 Well 1 (Caco-2 cell line; 1μM, third assay): 0.6046
- OD490 Well 2 (Caco-2 cell line; 1μM, third assay): 0.6112
- OD490 Well 3 (Caco-2 cell line; 1μM, third assay): 0.6387
- OD490 Mean (Caco-2 cell line; 10μM, first assay): 0.6584
- OD490 Well 1 (Caco-2 cell line; 10μM, first assay): 0.6611
- OD490 Well 2 (Caco-2 cell line; 10μM, first assay): 0.6501
- OD490 Well 3 (Caco-2 cell line; 10μM, first assay): 0.6639
- OD490 Mean (Caco-2 cell line; 10μM, second assay): 0.6246
- OD490 Well 1 (Caco-2 cell line; 10μM, second assay): 0.6493
- OD490 Well 2 (Caco-2 cell line; 10μM, second assay): 0.5502
- OD490 Well 3 (Caco-2 cell line; 10μM, second assay): 0.6742
- OD490 Mean (Caco-2 cell line; 10μM, third assay): 0.6177
- OD490 Well 1 (Caco-2 cell line; 10μM, third assay): 0.6611
- OD490 Well 2 (Caco-2 cell line; 10μM, third assay): 0.5578
- OD490 Well 3 (Caco-2 cell line; 10μM, third assay): 0.6341
- OD490 Mean (Caco-2 cell line; 25μM, first assay): 0.5948
- OD490 Well 1 (Caco-2 cell line; 25μM, first assay): 0.6149
- OD490 Well 2 (Caco-2 cell line; 25μM, first assay): 0.5791
- OD490 Well 3 (Caco-2 cell line; 25μM, first assay): 0.5903
- OD490 Mean (Caco-2 cell line; 25μM, second assay): 0.5865
- OD490 Well 1 (Caco-2 cell line; 25μM, second assay): 0.5801
- OD490 Well 2 (Caco-2 cell line; 25μM, second assay): 0.6127
- OD490 Well 3 (Caco-2 cell line; 25μM, second assay): 0.5666
- OD490 Mean (Caco-2 cell line; 25μM, third assay): 0.5866
- OD490 Well 1 (Caco-2 cell line; 25μM, third assay): 0.5903
- OD490 Well 2 (Caco-2 cell line; 25μM, third assay): 0.5721
- OD490 Well 3 (Caco-2 cell line; 25μM, third assay): 0.5974
- OD490 Mean (Caco-2 cell line; 50μM, first assay): 0.5045
- OD490 Well 1 (Caco-2 cell line; 50μM, first assay): 0.5048
- OD490 Well 2 (Caco-2 cell line; 50μM, first assay): 0.5114
- OD490 Well 3 (Caco-2 cell line; 50μM, first assay): 0.4972
- OD490 Mean (Caco-2 cell line; 50μM, second assay): 0.5178
- OD490 Well 1 (Caco-2 cell line; 50μM, second assay): 0.4983
- OD490 Well 2 (Caco-2 cell line; 50μM, second assay): 0.5020
- OD490 Well 3 (Caco-2 cell line; 50μM, second assay): 0.5531
- OD490 Mean (Caco-2 cell line; 50μM, third assay): 0.5361
- OD490 Well 1 (Caco-2 cell line; 50μM, third assay): 0.6048
- OD490 Well 2 (Caco-2 cell line; 50μM, third assay): 0.5048
- OD490 Well 3 (Caco-2 cell line; 50μM, third assay): 0.4988
- OD490 Mean (Caco-2 cell line; 100μM, first assay): 0.5483
- OD490 Well 1 (Caco-2 cell line; 100μM, first assay): 0.6273
- OD490 Well 2 (Caco-2 cell line; 100μM, first assay): 0.5214
- OD490 Well 3 (Caco-2 cell line; 100μM, first assay): 0.4962
- OD490 Mean (Caco-2 cell line; 100μM, second assay): 0.5031
- OD490 Well 1 (Caco-2 cell line; 100μM, second assay): 0.5662
- OD490 Well 2 (Caco-2 cell line; 100μM, second assay): 0.4999
- OD490 Well 3 (Caco-2 cell line; 100μM, second assay): 0.4431
- OD490 Mean (Caco-2 cell line; 100μM, third assay): 0.4792
- OD490 Well 1 (Caco-2 cell line; 100μM, third assay): 0.5214
- OD490 Well 2 (Caco-2 cell line; 100μM, third assay): 0.4347
- OD490 Well 3 (Caco-2 cell line; 100μM, third assay): 0.4814
- pIC50 (Caco-2 cell line; MTS assay, 24 h exposure): 3.97
- pIC50 (T24 cell line; MTS assay, 24 h exposure): 3.88
- OD490 Mean (T24 cell line; 0.5μM, first assay): 1.7953
- OD490 Well 1 (T24 cell line; 0.5μM, first assay): 1.9580
- OD490 Well 2 (T24 cell line; 0.5μM, first assay): 1.8859
- OD490 Well 3 (T24 cell line; 0.5μM, first assay): 1.5421
- OD490 Mean (T24 cell line; 0.5μM, second assay): 1.6618
- OD490 Well 1 (T24 cell line; 0.5μM, second assay): 1.6321
- OD490 Well 2 (T24 cell line; 0.5μM, second assay): 1.6547
- OD490 Well 3 (T24 cell line; 0.5μM, second assay): 1.6987
- OD490 Mean (T24 cell line; 0.5μM, third assay): 1.6883
- OD490 Well 1 (T24 cell line; 0.5μM, third assay): 1.6325
- OD490 Well 2 (T24 cell line; 0.5μM, third assay): 1.6625
- OD490 Well 3 (T24 cell line; 0.5μM, third assay): 1.7698
- OD490 Mean (T24 cell line; 1μM, first assay): 1.8122
- OD490 Well 1 (T24 cell line; 1μM, first assay): 1.9288
- OD490 Well 2 (T24 cell line; 1μM, first assay): 1.8729
- OD490 Well 3 (T24 cell line; 1μM, first assay): 1.6348
- OD490 Mean (T24 cell line; 1μM, second assay): 1.5761
- OD490 Well 1 (T24 cell line; 1μM, second assay): 1.5621
- OD490 Well 2 (T24 cell line; 1μM, second assay): 1.7412
- OD490 Well 3 (T24 cell line; 1μM, second assay): 1.4251
- OD490 Mean (T24 cell line; 1μM, third assay): 1.7342
- OD490 Well 1 (T24 cell line; 1μM, third assay): 1.7236
- OD490 Well 2 (T24 cell line; 1μM, third assay): 1.7425
- OD490 Well 3 (T24 cell line; 1μM, third assay): 1.7365
- OD490 Mean (T24 cell line; 10μM, first assay): 1.8792
- OD490 Well 1 (T24 cell line; 10μM, first assay): 2.1723
- OD490 Well 2 (T24 cell line; 10μM, first assay): 1.7790
- OD490 Well 3 (T24 cell line; 10μM, first assay): 1.6864
- OD490 Mean (T24 cell line; 10μM, second assay): 1.7434
- OD490 Well 1 (T24 cell line; 10μM, second assay): 1.9658
- OD490 Well 2 (T24 cell line; 10μM, second assay): 1.6625
- OD490 Well 3 (T24 cell line; 10μM, second assay): 1.6020
- OD490 Mean (T24 cell line; 10μM, third assay): 1.7548
- OD490 Well 1 (T24 cell line; 10μM, third assay): 1.7768
- OD490 Well 2 (T24 cell line; 10μM, third assay): 1.8524
- OD490 Well 3 (T24 cell line; 10μM, third assay): 1.6352
- OD490 Mean (T24 cell line; 25μM, first assay): 1.7549
- OD490 Well 1 (T24 cell line; 25μM, first assay): 1.8700
- OD490 Well 2 (T24 cell line; 25μM, first assay): 1.7393
- OD490 Well 3 (T24 cell line; 25μM, first assay): 1.6554
- OD490 Mean (T24 cell line; 25μM, second assay): 1.7221
- OD490 Well 1 (T24 cell line; 25μM, second assay): 1.6685
- OD490 Well 2 (T24 cell line; 25μM, second assay): 1.7236
- OD490 Well 3 (T24 cell line; 25μM, second assay): 1.7741
- OD490 Mean (T24 cell line; 25μM, third assay): 1.8268
- OD490 Well 1 (T24 cell line; 25μM, third assay): 1.7747
- OD490 Well 2 (T24 cell line; 25μM, third assay): 1.7535
- OD490 Well 3 (T24 cell line; 25μM, third assay): 1.9522
- OD490 Mean (T24 cell line; 50μM, first assay): 1.5187
- OD490 Well 1 (T24 cell line; 50μM, first assay): 1.4408
- OD490 Well 2 (T24 cell line; 50μM, first assay): 1.5156
- OD490 Well 3 (T24 cell line; 50μM, first assay): 1.5997
- OD490 Mean (T24 cell line; 50μM, second assay): 1.5158
- OD490 Well 1 (T24 cell line; 50μM, second assay): 1.5365
- OD490 Well 2 (T24 cell line; 50μM, second assay): 1.5214
- OD490 Well 3 (T24 cell line; 50μM, second assay): 1.4896
- OD490 Mean (T24 cell line; 50μM, third assay): 1.4458
- OD490 Well 1 (T24 cell line; 50μM, third assay): 1.4214
- OD490 Well 2 (T24 cell line; 50μM, third assay): 1.4823
- OD490 Well 3 (T24 cell line; 50μM, third assay): 1.4336
- OD490 Mean (T24 cell line; 100μM, first assay): 1.4345
- OD490 Well 1 (T24 cell line; 100μM, first assay): 1.4729
- OD490 Well 2 (T24 cell line; 100μM, first assay): 1.3331
- OD490 Well 3 (T24 cell line; 100μM, first assay): 1.4975
- OD490 Mean (T24 cell line; 100μM, second assay): 1.3859
- OD490 Well 1 (T24 cell line; 100μM, second assay): 1.3654
- OD490 Well 2 (T24 cell line; 100μM, second assay): 1.5687
- OD490 Well 3 (T24 cell line; 100μM, second assay): 1.2235
- OD490 Mean (T24 cell line; 100μM, third assay): 1.3345
- OD490 Well 1 (T24 cell line; 100μM, third assay): 1.3553
- OD490 Well 2 (T24 cell line; 100μM, third assay): 1.4058
- OD490 Well 3 (T24 cell line; 100μM, third assay): 1.2423
